Results taken from US20230382925A1, “MODULATORS OF CYSTIC FIBROSIS TRANSMEMBRANE CONDUCTANCE REGULATOR” (VERTEX PHARMACEUTICALS INCORPORATED, priority 2020, published 2023).

Assays:
CFTR [1] = target: T1, CFTR (Homo sapiens, UniProt P13569); test: Membrane Potential Dye, Enteroid Assay A; format: cell-based; conditions: for EC50: read-out: Ent. A EC50
How it was run: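 Primary human intestinal enteroid cells exposed to compound for 18–24 hours at 37 °C, then loaded 25 min with methyl oxonol membrane potential dye plus CaCC inhibitors. Chloride transport triggered in chloride-free buffer with 10 μM forskolin, 100 μM IBMX and 300 nM Compound III, fluorescence read 15 min; % Activity relative to a triple-combination corrector/potentiator control.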

CFTR [2] = target: T1, CFTR; test: Membrane Potential Dye, Enteroid Assay B; format: cell-based; conditions: for EC50: read-out: Ent. B EC50
How it was run: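 Activity given as % of a triple-combination reference (1 μM and 3 μM correctors, 300 nM acute potentiator). Enteroids were preincubated 18-24 h with compound; chloride efflux then measured 15 min by methyl oxonol fluorescence after forskolin/IBMX/Compound III stimulation in chloride-free buffer containing CaCCinh-A01 and Chicago Sky Blue.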

T1 sequence (P13569 with tags, fused parts or gaps DEL508-508): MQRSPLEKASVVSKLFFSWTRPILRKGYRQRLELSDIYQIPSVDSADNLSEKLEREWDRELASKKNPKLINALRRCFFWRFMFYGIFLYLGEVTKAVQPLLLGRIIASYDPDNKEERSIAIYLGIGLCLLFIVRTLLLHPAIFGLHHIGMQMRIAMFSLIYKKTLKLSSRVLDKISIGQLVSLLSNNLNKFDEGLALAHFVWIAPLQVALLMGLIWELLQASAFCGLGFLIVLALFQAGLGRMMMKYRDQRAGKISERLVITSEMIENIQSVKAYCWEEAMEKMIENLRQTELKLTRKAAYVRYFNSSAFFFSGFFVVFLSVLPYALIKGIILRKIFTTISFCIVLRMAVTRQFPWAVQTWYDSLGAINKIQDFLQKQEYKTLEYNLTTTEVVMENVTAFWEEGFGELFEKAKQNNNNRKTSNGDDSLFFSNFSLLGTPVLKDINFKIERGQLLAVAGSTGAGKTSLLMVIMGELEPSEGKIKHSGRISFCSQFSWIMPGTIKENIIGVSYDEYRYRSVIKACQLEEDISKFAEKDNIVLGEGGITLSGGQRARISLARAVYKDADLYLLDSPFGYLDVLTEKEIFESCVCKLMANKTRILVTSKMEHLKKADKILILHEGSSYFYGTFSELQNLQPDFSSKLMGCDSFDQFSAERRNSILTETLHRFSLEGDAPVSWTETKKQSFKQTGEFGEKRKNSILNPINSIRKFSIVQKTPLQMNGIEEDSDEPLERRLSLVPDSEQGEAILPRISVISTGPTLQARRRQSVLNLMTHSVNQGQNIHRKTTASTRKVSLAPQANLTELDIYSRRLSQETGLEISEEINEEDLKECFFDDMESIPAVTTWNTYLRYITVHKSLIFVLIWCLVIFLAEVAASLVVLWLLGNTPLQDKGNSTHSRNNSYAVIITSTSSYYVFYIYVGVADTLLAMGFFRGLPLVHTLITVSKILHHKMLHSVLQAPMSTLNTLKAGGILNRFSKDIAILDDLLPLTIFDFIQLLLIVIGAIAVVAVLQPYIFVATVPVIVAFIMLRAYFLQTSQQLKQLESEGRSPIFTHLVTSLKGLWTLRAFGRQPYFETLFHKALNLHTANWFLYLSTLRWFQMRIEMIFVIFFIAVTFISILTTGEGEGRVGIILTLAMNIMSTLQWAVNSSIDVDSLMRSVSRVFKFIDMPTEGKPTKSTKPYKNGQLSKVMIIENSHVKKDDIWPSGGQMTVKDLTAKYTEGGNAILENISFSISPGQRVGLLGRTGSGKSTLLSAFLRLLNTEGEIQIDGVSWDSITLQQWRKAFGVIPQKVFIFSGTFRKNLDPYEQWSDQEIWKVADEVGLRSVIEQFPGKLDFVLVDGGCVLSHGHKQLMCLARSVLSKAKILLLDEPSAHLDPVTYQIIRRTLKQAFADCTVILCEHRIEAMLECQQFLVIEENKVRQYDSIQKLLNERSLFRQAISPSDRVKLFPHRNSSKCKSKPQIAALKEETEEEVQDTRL

SMILES	Ent. A Max Activity (%) (CFTR [1])	EC50 (CFTR [1]) [µM]	Ent. B Max Activity (%) (CFTR [2])	EC50 (CFTR [2]) [µM]
Cc1cccc(C)c1-c1cc2nc(n1)NS(=O)(=O)c1cccc(c1)C(=O)N(C1CN(C(=O)OCc3ccccc3)C1)[C@H](CC(C)C)CO2 [Compound 100, Benzyl 3-[(11R)-6-(2,6-dimethylphenyl)-11-isobutyl-2,2,13-trioxo-9-oxa-2λ^6-thia-3,5,12,19-tetrazatricyclo[12.3.1.14,8]nonadeca-1(18),4(19),5,7,14,16-hexaen-12-yl]azetidine-1-carboxylate]	+++ (+++ is >60%)	< 1	+++ (+++ is >60%)	< 1
CC(=O)N1CCC2(CC1)CC(N1C(=O)c3cccc(c3)S(=O)(=O)Nc3nc(cc(-c4c(C)cccc4C)n3)OC[C@H]1CC(C)C)C2 [Compound 16, (11R)-12-(7-Acetyl-7-azaspiro[3.5]nonan-2-yl)-6-(2,6-dimethylphenyl)-11-isobutyl-2,2-dioxo-9-oxa-2λ^6-thia-3,5,12,19-tetrazatricyclo[12.3.1.14,8]nonadeca-1(18),4(19),5,7,14,16-hexaen-13-one]	+++ (+++ is >60%)	< 1	+++ (+++ is >60%)	< 1
Cc1cccc(C)c1-c1cc2nc(n1)NS(=O)(=O)c1cccc(c1)C(=O)N([C@H]1C[C@@H](C#N)C1)[C@H](CC(C)C)CO2 (stereo in doubt) [Compound 469]	+++ (+++ is >60%)	< 1	+++ (+++ is >60%)	< 1
Cc1cccc(C)c1-c1cc2nc(n1)NS(=O)(=O)c1cccc(c1)C(=O)N([C@H]1CC3(C[C@@H](CO)C3)C1)[C@H](CC(C)C)CO2 (stereo partly drawn) [Compound 337]	+++ (+++ is >60%)	< 1	+++ (+++ is >60%)	< 1
Cc1cccc(C)c1-c1cc2nc(n1)NS(=O)(=O)c1cccc(c1)C(=O)N(C1CC3(CCN(C(=O)OC(C)C)CC3)C1)[C@H](CC(C)C)CO2 [Compound 21, Isopropyl 2-[(11R)-6-(2,6-dimethylphenyl)-11-isobutyl-2,2,13-trioxo-9-oxa-2λ^6-thia-3,5,12,19-tetrazatricyclo[12.3.1.14,8]nonadeca-1(18),4(19),5,7,14,16-hexaen-12-yl]-7-azaspiro[3.5]nonane-7-carboxylate]	+++ (+++ is >60%)	< 1	+++ (+++ is >60%)	< 1
Cc1cccc(C)c1-c1cc2nc(n1)NS(=O)(=O)c1cccc(c1)C(=O)N([C@H]1C[C@@H](NC(=O)OC(C)(C)C)C1)[C@H](CC(C)C)CO2 [Compound 349]	+++ (+++ is >60%)	< 1	++ (++ is 30-60%)	< 1
CCOC(=O)N1CCC2(CC1)CC(N1C(=O)c3cccc(c3)S(=O)(=O)Nc3nc(cc(-c4c(C)cccc4C)n3)OC[C@H]1CC(C)C)C2 [Compound 315]	+++ (+++ is >60%)	< 1	+++ (+++ is >60%)	< 1
Cc1cccc(C)c1-c1cc2nc(n1)NS(=O)(=O)c1cccc(n1)C(=O)N(C1CC3(CC3)C1)[C@H](CC(C)(C)C)CO2 [Compound 401]	+++ (+++ is >60%)	< 1	+++ (+++ is >60%)	< 1
COC(=O)N1CCC2(CC1)CC(N1C(=O)c3cccc(c3)S(=O)(=O)Nc3nc(cc(-c4c(C)cccc4C)n3)OC[C@H]1CC(C)C)C2 [Compound 19, methyl 2-[(11R)-6-(2,6-dimethylphenyl)-11-isobutyl-2,2,13-trioxo-9-oxa-2λ^6-thia-3,5,12,19-tetrazatricyclo[12.3.1.14,8]nonadeca-1(18),4(19),5,7,14,16-hexaen-12-yl]-7-azaspiro[3.5]nonane-7-carboxylate]	+++ (+++ is >60%)	< 1	+++ (+++ is >60%)	< 1
